Calls of active or inactive are those of the source. The rule behind the calls is not given here.
Target: Toxin B (TcdB) glycohydrolase, Clostridioides difficile 630
Experiment: TcdB glycohydrolase inhibitors, dose response, biochemical, cherry-pick, plate reader (AID 720512)
Settings: recombinant TcdB glycohydrolase activity; for activity change, negative = inhibition: at 19.5 µM (top of the series)

Row | SMILES | activity change, negative = inhibition | AC50
1 | COc1cc(/C=N/NC(=O)CCN2CCCCC2)ccc1O | inactive | –
2 | COc1cc(C(=O)Nc2scc(-c3ccccc3)c2C(=O)O)cc(OC)c1OC | inactive | –
3 | CC(=O)NC(Cc1ccccc1)C(=O)Oc1ccc2ccccc2c1 (stereo unspecified) | inactive | –
4 | COc1cc(/C=N/Nc2nc3ccccc3[nH]2)ccc1O | inactive | –
5 | COc1ccccc1N1CC(O)=C(c2nc3ccccc3s2)C1=N | inactive | –
6 | COc1cc(/C=C/C(=O)c2ccc([N+](=O)[O-])o2)ccc1O | inactive | –
7 | Nc1nnn(CC(=O)N/N=C/c2ccc(O)cc2)n1 | inactive | –
8 | C/C(=N\OCC(=O)Nc1nc2ccccc2s1)c1ccccc1 | inactive | –
9 | CC1C(=O)NN=C1c1ccc([N+](=O)[O-])cc1 (stereo unspecified) | inactive | –
10 | CC(C)CNC(=O)C(=O)NCC1CCCN1S(=O)(=O)c1cccs1 (stereo unspecified) | inactive | –
11 | CC(=O)N1CCN(c2ccc(S(C)(=O)=O)cc2[N+](=O)[O-])CC1 | inactive | –
12 | Oc1ccc(Nc2nc(Cl)nc(NCc3ccco3)n2)cc1 | – | 21.7 µM
13 | O=C1CCCC2=C1Sc1ccccc1N2 | inactive | –
14 | Cc1onc(-c2ccccc2)c1C(=O)N(Cc1ccco1)Cc1cccs1 | inactive | –
15 | Cc1cc(O)ccc1N=Cc1c(C(F)(F)F)[nH][nH]c1=O | inactive | –
16 | COc1cc(OC)cc(C(=O)NNC(=O)CN2C(=O)NC(C)(c3ccc(C)cc3)C2=O)c1 (stereo unspecified) | inactive | –
17 | COc1ccc(C(CNC(=O)c2oc3ccc(OC)cc3c2C)N2CCCC2)cc1 (stereo unspecified) | inactive | –
18 | CCOC(=O)c1ccc2ncc(-c3ccccc3)nc2c1 | inactive | –
19 | COc1ccc(OCc2cc(-c3ccc(Cl)cc3)no2)cc1 | inactive | –
20 | O=C(CN1C(=O)NC2(CCCc3ccccc32)C1=O)NCc1cccs1 (stereo unspecified) | inactive | –
21 | Cc1cnc([N+](=O)[O-])n1CCOC(=O)NC(=O)c1ccc(F)cc1 | inactive | –
22 | CC(C)C12NC(=O)NC(=O)N1CCS2 (stereo unspecified) | inactive | –
23 | Cc1ccc(NNC(=O)c2ccno2)c(C)c1 | inactive | –
24 | CN(C)c1ccc(/C=C/c2cccc[n+]2[O-])cc1 | inactive | –

Row | SMILES | activity change, negative = inhibition | AC50
25 | O=c1oc(-c2ccc(Br)cc2)nc2ccccc12 | inactive | –
26 | Cc1ccc2c(c1)/C(=C/c1ccccc1C)C(=O)N2 | inactive | –
27 | Cc1c(Cl)cccc1NC(=O)C1Cc2ccccc2CN1C(=O)c1ccccc1 (stereo unspecified) | inactive | –
28 | ClCC(CNCc1ccccc1)c1ccccc1 (stereo unspecified) | inactive | –
29 | CN1CCN(/N=C/c2c[nH]c3ccccc23)CC1 | inactive | –
30 | CCN(C(=O)COC(=O)c1cccnc1SC)C1CCCCC1 | inactive | –
31 | O=C(O)C1CCC(CN(Cc2cccc(Br)c2)C(=S)Nc2ccccc2F)CC1 (stereo unspecified) | inactive | –
32 | CCN(CC)S(=O)(=O)c1cc(C(=O)Nc2cccnc2Cl)ccc1Cl | inactive | –
33 | Cc1ccc(/C=C(\C#N)C(=O)Nc2ccccn2)o1 | inactive | –
34 | CCOC(=O)c1nnn(-c2nonc2N)c1-c1ccccc1Cl | inactive | –
35 | CC(=O)Oc1ccc2nc(/C=C/c3ccccc3)oc(=O)c2c1 | inactive | –
36 | COC(=O)Cc1ccc(NC(=S)NCc2ccco2)cc1 | inactive | –
37 | CC(C)OC(=O)c1cccc(C(=O)O)n1 | inactive | –
38 | Cc1cccc(/C=C/c2onc(C)c2S(=O)(=O)N2CCC(C(=O)N3CCCCCC3)CC2)c1 | inactive | –
39 | CNc1n[nH]c(=S)s1 | inactive | –
40 | NNC(=O)CCc1nc2ccc(O)cc2[nH]1 | inactive | –
41 | O=c1[nH]c(/C=C\c2ccc(O)c(Cl)c2)nc(O)c1[N+](=O)[O-] | – | > 39 µM (inactive)
42 | CCOC(=O)c1nnn(-c2nonc2N)c1-c1ccc(F)cc1 | inactive | –
43 | CCOc1ccccc1/C=C/c1onc(C)c1S(=O)(=O)N1CCC(C(=O)N2CCCCCC2)CC1 | inactive | –
44 | Cc1ccc(-c2nc3ccc([N+](=O)[O-])cc3[nH]2)cc1 | inactive | –
45 | Oc1ccc(-c2cn3ccccc3n2)cc1 | – | 12.1 µM
46 | COc1ccc(NC(c2ccccc2)c2ccncc2)cc1 (stereo unspecified) | inactive | –
47 | Cc1ccc(S(=O)(=O)Oc2ccccc2/C=C2/SC(=O)NC2=O)cc1 | inactive | –
48 | CC(C)Cc1cc(C(=O)N2CCCC(CO)(Cc3ccc(F)cc3)C2)no1 (stereo unspecified) | inactive | –

Row | SMILES | activity change, negative = inhibition | AC50
49 | Cc1ccnc(N2C(=O)c3ccccc3C2=O)c1 | inactive | –
50 | O=C(NCCc1cccc(Cl)c1)c1ccc(Cl)c([N+](=O)[O-])c1 | inactive | –
51 | O=C(CSc1cccc2cccnc12)N/N=C/c1ccc(O)cc1 | inactive | –
52 | Cc1nc(-c2ccccn2)nc(SCC(=O)c2ccc(F)cc2)c1Cl | inactive | –
53 | Cc1cc(C)nc(SCC(=O)c2ccc(O)c(O)c2)n1 | inactive | –
54 | CC1C(=O)C(C)C(c2ccc([N+](=O)[O-])cc2)NC1c1ccc([N+](=O)[O-])cc1 (stereo unspecified) | inactive | –
55 | COc1ccc2nccc(/C=C/c3ccnc4ccc(OC)cc34)c2c1 | inactive | –
56 | CC1(C)CC(=O)C(C=Nc2ccc(O)cc2)=C(O)C1 | inactive | –
57 | O=C(O)c1cc(-c2ccccc2Cl)n(-c2cccc(Cl)c2)n1 | inactive | –
58 | O=C(O)c1ccc(-n2nnc3ccccc32)c([N+](=O)[O-])c1 | inactive | –
59 | CCOc1ccc(S(=O)(=O)NCCC(=O)NCc2ccccn2)cc1 | inactive | –
60 | COCC(=O)N1CC[C@@H]2[C@H]1c1cc(-c3ccc(OC)cc3)ccc1N(C)[C@H]2CO | – | > 39 µM (inactive)
61 | Cc1cnc(C(=O)OCC(=O)N2C(C)CCCC2C)cn1 (stereo unspecified) | inactive | –
62 | COCCNc1oc(/C=C/c2ccccc2)nc1C#N | inactive | –
63 | CCC(=O)N1CC[C@@H]2[C@H]1c1cc(-c3ccc(OC)cc3)ccc1N(C)[C@H]2CO | – | > 42 µM (inactive)
64 | COc1ccc(C(=O)NC(C(=O)NCc2ccccc2OC)C(C)C)cc1 (stereo unspecified) | inactive | –
65 | CC1=C(C(=O)OCC2CCCO2)C(c2coc3ccccc3c2=O)C2=C(CCCC2=O)N1 (stereo unspecified) | inactive | –
66 | COc1nc(C)cc(C)c1S(=O)(=O)c1ccc(Cl)cc1 | inactive | –
67 | CCOC(=O)c1[nH]nc(-c2cc(CC)c(O)cc2O)c1-c1cscn1 | – | > 39 µM (inactive)
68 | C/C(CCc1ccccc1)=N\NC(=O)C1C2CCCCC21 (stereo unspecified) | inactive | –
69 | COc1ccccc1-c1cn[nH]c1-c1ccc(O)cc1O | inactive | –
70 | CN(C)c1ccc(NC(=O)/C=C/c2c(Cl)cccc2Cl)cc1 | inactive | –
71 | c1ccc(OCCSc2nnc3sc4ccccc4n23)cc1 | – | > 39 µM (inactive)
